Reference: patent US20050148627A1, “Benzopyran compounds for use in the treatment and prevention of inflammation related conditions” (priority 2003, published 2005)

Row | melting point [°C] | SMILES
1 | 211 to 213.5 | O=C(O)C1=Cc2c(ccc(Cl)c2-c2ccsc2)OC1C(F)(F)F (centres unmarked) [Example 868, 6-Chloro-5-thien-3-yl-2-(trifluoromethyl)-2H-chromene-3-carboxylic acid]
2 | 218 to 220 | Cc1ccc(-c2c(Cl)ccc3c2C=C(C(=O)O)C(C(F)(F)F)O3)cc1 (centres unmarked) [Example 869, 6-Chloro-5-(4-methylphenyl)-2-(trifluoromethyl)-2H-chromene-3-carboxylic acid]
